The text below walks through data of ChEMBL document CHEMBL1146586, “Chromone studies. Part 13. Synthesis and electron-impact mass spectrometric studies of 5-hydroxy-2-isopropyl-7-methoxychromone, a constituent of the medicinal plant Baeckea frutescens, and side-chain analogues” (J Nat Prod, 2003).

≈ marks a conversion by molar mass, not a printed value.

The nature of this data set: Toxicity against Artemia salina by Spearman-Karber method. The data set is classed as organism-based. The note with it: in vivo.

In general, LC50 refers to the concentration lethal to half of the exposed cells or organisms. Consider `COc1cc(OC)c2c(=O)cc(C)oc2c1`, for which the LC50 stood at 315 µg/mL (≈ 1430 µM).

`CCc1cc(=O)c2c(OC)cc(OC)cc2o1`: the LC50 turned out to be 200 µg/mL (≈ 854 µM).

Consider `CCc1cc(=O)c2c(O)cc(OC)cc2o1`, for which the median lethal concentration (LC50) came to 39 µg/mL (≈ 177 µM).

For the molecule `COc1cc(O)c2c(=O)cc(C)oc2c1` [EUGENIN], the LC50 is 112 µg/mL (≈ 544 µM).

As for `COc1cc(O)c2c(=O)cc(Cc3ccccc3)oc2c1`, the LC50 came to 517 µg/mL (≈ 1830 µM).

As for `CCCc1cc(=O)c2c(O)cc(OC)cc2o1`, the median lethal concentration (LC50) was 31.5 µg/mL (≈ 134 µM).

`COc1cc(OC)c2c(=O)cc(Cc3ccccc3)oc2c1` showed a median lethal concentration (LC50) of 247 µg/mL (≈ 835 µM).

With `COc1cc(O)c2c(=O)cc(C(C)C)oc2c1`, the LC50 was 23.8 µg/mL (≈ 102 µM).

Molecule `COc1cc(OC)c2c(=O)cc(C(C)C)oc2c1` yielded an LC50 of 94.2 µg/mL (≈ 379 µM).

`CCCc1cc(=O)c2c(OC)cc(OC)cc2o1` showed an LC50 of 106 µg/mL (≈ 427 µM).
